Measured values reported in ChEMBL document CHEMBL5724796, “Tm Shift (DSF) assay results for EUbOPEN Chemogenomics Library” (2024).
Residues, ends and D or L forms follow the SMILES beside them. *: point of attachment. Boc = CC(C)(C)OC(=O)*

Tests used:
[1] = biological target: Fibroblast growth factor receptor 2 (Homo sapiens) (UniProt P21802); settings: Compound concentration 20.0 uM
Description: Thermal Shift Assay. Domain: start/stop: T457-E768

Peregrin (Homo sapiens) = biological target: T1, Peregrin (Homo sapiens) (UniProt P55201); settings: Compound concentration 20.0 uM
T1 sequence (whole entry): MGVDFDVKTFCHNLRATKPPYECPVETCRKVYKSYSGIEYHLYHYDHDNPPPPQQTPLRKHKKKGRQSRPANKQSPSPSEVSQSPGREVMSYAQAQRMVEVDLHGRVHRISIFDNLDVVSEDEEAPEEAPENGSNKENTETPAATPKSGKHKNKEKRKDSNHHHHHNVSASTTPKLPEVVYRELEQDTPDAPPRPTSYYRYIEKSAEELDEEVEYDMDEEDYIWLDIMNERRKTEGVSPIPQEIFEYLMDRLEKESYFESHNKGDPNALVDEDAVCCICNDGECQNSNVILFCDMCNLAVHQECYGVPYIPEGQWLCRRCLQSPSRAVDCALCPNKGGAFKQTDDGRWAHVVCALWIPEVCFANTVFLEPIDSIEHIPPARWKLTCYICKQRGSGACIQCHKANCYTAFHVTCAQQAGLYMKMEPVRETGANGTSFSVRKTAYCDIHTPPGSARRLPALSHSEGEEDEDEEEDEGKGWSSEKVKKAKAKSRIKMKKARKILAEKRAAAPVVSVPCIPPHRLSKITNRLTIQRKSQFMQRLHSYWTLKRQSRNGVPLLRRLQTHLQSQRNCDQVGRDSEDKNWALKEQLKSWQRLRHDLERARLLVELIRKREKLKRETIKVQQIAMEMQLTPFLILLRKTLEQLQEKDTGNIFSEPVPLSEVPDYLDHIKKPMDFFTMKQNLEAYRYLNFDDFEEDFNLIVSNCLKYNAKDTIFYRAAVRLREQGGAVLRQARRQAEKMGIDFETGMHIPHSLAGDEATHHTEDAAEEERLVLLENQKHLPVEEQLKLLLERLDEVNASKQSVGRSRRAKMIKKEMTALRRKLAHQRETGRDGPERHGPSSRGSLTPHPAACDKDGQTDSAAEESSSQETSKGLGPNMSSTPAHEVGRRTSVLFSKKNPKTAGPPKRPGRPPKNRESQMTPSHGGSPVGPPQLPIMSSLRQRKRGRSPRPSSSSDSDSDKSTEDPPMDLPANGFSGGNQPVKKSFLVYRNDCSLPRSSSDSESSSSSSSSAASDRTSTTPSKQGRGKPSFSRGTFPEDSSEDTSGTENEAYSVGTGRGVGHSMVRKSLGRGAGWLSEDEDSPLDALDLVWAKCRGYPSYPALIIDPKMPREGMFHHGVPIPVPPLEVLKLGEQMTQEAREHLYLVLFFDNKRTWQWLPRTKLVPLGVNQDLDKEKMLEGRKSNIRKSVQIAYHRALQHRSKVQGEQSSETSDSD

Fibroblast growth factor receptor 2 (Homo sapiens), sequence (P21802 22-821 limits assumed): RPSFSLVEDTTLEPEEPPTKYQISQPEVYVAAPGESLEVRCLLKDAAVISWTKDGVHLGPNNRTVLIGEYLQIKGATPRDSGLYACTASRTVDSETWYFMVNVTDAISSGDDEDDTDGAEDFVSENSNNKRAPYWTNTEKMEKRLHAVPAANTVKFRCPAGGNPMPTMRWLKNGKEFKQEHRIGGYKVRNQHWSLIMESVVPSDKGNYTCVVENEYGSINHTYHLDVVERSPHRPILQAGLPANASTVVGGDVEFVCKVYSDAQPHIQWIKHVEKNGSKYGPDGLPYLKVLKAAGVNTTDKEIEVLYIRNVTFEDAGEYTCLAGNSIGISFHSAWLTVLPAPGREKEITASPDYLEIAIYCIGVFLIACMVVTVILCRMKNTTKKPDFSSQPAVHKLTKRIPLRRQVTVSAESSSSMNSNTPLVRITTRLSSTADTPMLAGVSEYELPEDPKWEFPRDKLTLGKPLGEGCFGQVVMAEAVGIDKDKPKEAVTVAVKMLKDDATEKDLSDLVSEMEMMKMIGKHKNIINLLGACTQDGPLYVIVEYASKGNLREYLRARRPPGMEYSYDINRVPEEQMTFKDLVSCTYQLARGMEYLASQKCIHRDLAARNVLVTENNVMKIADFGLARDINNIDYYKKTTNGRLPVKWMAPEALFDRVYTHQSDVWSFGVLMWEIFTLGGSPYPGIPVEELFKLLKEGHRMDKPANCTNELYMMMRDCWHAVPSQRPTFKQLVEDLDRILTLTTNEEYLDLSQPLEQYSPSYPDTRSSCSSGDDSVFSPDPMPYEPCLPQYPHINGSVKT

SMILES | ΔTm [1] | ΔTm (Peregrin (Homo sapiens)) | ΔTm (Peregrin (Homo sapiens); Protein concentration 2.0 uM)
Cc1ccc(C(=O)Nc2ccc(S(=O)(=O)O)c3cc(S(=O)(=O)O)cc(S(=O)(=O)O)c23)cc1NC(=O)c1cccc(NC(=O)Nc2cccc(C(=O)Nc3cc(C(=O)Nc4ccc(S(=O)(=O)O)c5cc(S(=O)(=O)O)cc(S(=O)(=O)O)c45)ccc3C)c2)c1 | -1.68 °C | -1.58 °C | –
N=C(N)NC(=O)c1cnn(-c2cccc3ncccc23)c1C1CC1 | -0.51 °C | -0.17 °C | –
Cc1cc2cc(NS(=O)(=O)c3ccc(C#N)cc3)ccc2n(C)c1=O | 0.4 °C | 8.89 °C | –
Cc1cc(/N=N/c2ccc(S(=O)(=O)Nc3ccccn3)cc2)c(N)cc1O | 0.17 °C | 5.09 °C | –
C[C@@H]1OC(=O)NN=C1c1ccc(-c2ccc(F)cc2)c(C(F)(F)F)c1 | -0.74 °C | 0.4 °C | –
CCCc1nc(C)c2c(=O)nc(-c3cc(S(=O)(=O)N4CCN(CC)CC4)ccc3OCC)[nH]n12 | 0.41 °C | 1.02 °C | –
COc1ccc(CC[C@H]2CCC[C@@H](CCc3ccc(OC)cc3)N2C[C@@H](O)CO)cc1 | -0.53 °C | 0.69 °C | –
CC(C)(C)OC(=O)Nc1ccc(-c2cc(C(=O)NCCCCCCC(=O)NO)no2)cc1 | -3.33 °C | 0 °C | –
O=c1[nH][nH]c(=O)c2cc(OCc3ccccc3F)ccc12 | 0.22 °C | 2.62 °C | –
Cc1nccn1CC1CCc2c(c3ccccc3n2C)C1=O (stereo not given) | -0.16 °C | 0.91 °C | –
C=CCc1cccc(CNc2nc3ccccc3n2CCC)c1O | 0.14 °C | 4.18 °C | –
CC(C)(O)c1ccc(-c2nc3c(F)cc(F)cc3c(=O)[nH]2)cc1 | -3.32 °C | -0.9 °C | –
Cc1ncsc1-c1ccc(CNC(=O)[C@@H]2C[C@@H](O)CN2C(=O)[C@@H](NC(=O)COCC(C)(COCCOCCOCCNC(=O)C[C@@H]2N=C(c3ccc(Cl)cc3)c3c(sc(C)c3C)-n3c(C)nnc32)COCCOCCOCCNC(=O)C[C@@H]2N=C(c3ccc(Cl)cc3)c3c(sc(C)c3C)-n3c(C)nnc32)C(C)(C)C)cc1 | -1.18 °C | -5.29 °C | –
CCCCCCCC(=O)N[C@H](CN1CCCC1)[C@H](O)c1ccc2c(c1)OCCO2 | 0.38 °C | 1.02 °C | –
O=C(CN1CCN(c2ccc(F)cn2)CC1)Nc1nc2c(s1)CCCC2 | -0.21 °C | 2.63 °C | –
C/C(=N\NC(=O)c1cccc(S(=O)(=O)N2CCOCC2)c1)c1cc(Cl)ccc1O | -0.21 °C | 2.44 °C | –
CC(=O)N[C@@H](Cc1ccc(O)cc1)C(=O)N[C@H](C(=O)N[C@@H](C)C(=O)N[C@@H](CC(=O)O)C(=O)COC(=O)c1c(C)cccc1C)C(C)C | 0.82 °C | -1.58 °C | –
CCN(c1cc(-c2ccc(CN3CCOCC3)cc2)cc(C(=O)NCc2c(C)cc(C)[nH]c2=O)c1C)C1CCOCC1 | 0.66 °C | -1.14 °C | –
COc1cc(-c2cn(C)c(=O)c3cnccc23)cc(OC)c1CN(C)CC(=O)NCCOCCOCCNc1cccc2c1C(=O)N(C1CCC(=O)NC1=O)C2=O (stereo not given) | 0.52 °C | -0.56 °C | –
O=C(Nc1ccccc1C(=O)O)c1cc(S(=O)(=O)c2ccccc2)ccc1Cl | -0.48 °C | 0.95 °C | –

SMILES | ΔTm [1] | ΔTm (Peregrin (Homo sapiens)) | ΔTm (Peregrin (Homo sapiens); Protein concentration 2.0 uM)
NC(=O)c1cc(F)cc2c1C(=O)N(C1CCN(C3CCC(F)(F)CC3)CC1)C2 | -0.03 °C | -0.15 °C | –
CN1CCN(c2cc(C(=O)Nc3ncc(SCc4cccc(C(F)(F)F)c4)s3)ccn2)CC1 | 0.89 °C | -1.6 °C | –
CN1CCc2c(n(Cc3ccc(C(=O)NO)cc3)c3ccccc23)C1 | -3.78 °C | -0.68 °C | –
O=C(O)C1=CCCN(CCOC(c2ccc(C(F)(F)F)cc2)c2ccc(C(F)(F)F)cc2)C1 | -0.15 °C | 0.47 °C | –
O=C(O)C1=CCCN(CCON=C(c2ccccc2)c2ccccc2)C1 | 0.48 °C | 0.57 °C | –
COC(=O)c1ccc(CN2CCC(O)(Cn3cnc4c(-c5ccc(CN)cc5)n(C)nc4c3=O)CC2)c(Cl)c1 | -0.37 °C | 1.55 °C | –
Cc1c(NC(=O)c2cc(C(N)=O)nc3cc(F)ccc23)c(C(F)(F)F)nn1Cc1ccc(C#N)cc1 | 0.32 °C | 0.94 °C | –
CC(C)Cn1c(=O)n(C)c(=O)c2c(C(=O)N3CC[C@@H](O)C3)c(Cc3ccnc4ccccc34)sc21 | 0.61 °C | 0.74 °C | –
O=C1COc2c(cccc2[C@@H](O)CNCCN(C(=O)CCNCCc2ccc(Cl)c(Cl)c2)C2CCCCC2)N1 | 0.36 °C | -1.84 °C | –
COc1cc2c(NC3CCN(C4CCCCC4)CC3)nc(N3CCCN(C(C)C)CC3)nc2cc1OCCCN1CCCCC1 | 0.34 °C | -1.05 °C | –
CCCCCCCCCCCCC/C=C/[C@@H](O)[C@H](CO)NC(=O)CBr | -18.9 °C | -2.74 °C | –
O=c1c2nnc(C3CCOCC3)n2cc(Br)n1CC1CCCC1 | -0.26 °C | -0.41 °C | –
CC(=O)N[C@@H](CC(=O)O)C(=O)N[C@@H](CCC(=O)O)C(=O)N[C@H](C(=O)N[C@@H](CC(=O)O)C(=O)CCl)C(C)C | 0.6 °C | -1.75 °C | –
Cc1cccc(Nc2ccncc2S(=O)(=O)NC(=O)NC(C)C)c1 | -0.51 °C | 0.33 °C | –
CCCCCCCCCCCCC/C=C/[C@@H](O)[C@H](CO)NC(=O)CCl | 0.03 °C | 0.52 °C | –
CNc1cc(-c2cccc(Cl)c2Cl)nc(N)n1 | -0.72 °C | 0.7 °C | –
CN1Cc2c(Cl)cc(Cl)cc2[C@H](c2cccc(S(=O)(=O)NCCOCCOCCNC(=O)NCCCCNC(=O)NCCOCCOCCNS(=O)(=O)c3cccc([C@@H]4CN(C)Cc5c(Cl)cc(Cl)cc54)c3)c2)C1 | -0.42 °C | 0.43 °C | –
CCc1ccccc1NC(=O)CSC(=O)NNC(=O)[C@H](Cc1c[nH]c2ccccc12)NC(=O)OC(C)(C)C | -9.39 °C | -6.08 °C | –
CCNC(=O)c1noc(-c2cc(C(C)C)c(O)cc2O)c1-c1ccc(CN2CCOCC2)cc1 | 0.62 °C | -1.1 °C | –
CC(C)(C)NS(=O)(=O)c1cccc2c(NC(=O)[C@H](Cc3ccccc3)NC(=O)C3CCCCC3)cccc12 | 0.01 °C | 0.28 °C | –

SMILES | ΔTm [1] | ΔTm (Peregrin (Homo sapiens)) | ΔTm (Peregrin (Homo sapiens); Protein concentration 2.0 uM)
CC(C)c1ccc(-c2cc(=O)c3ccccc3o2)cc1 | -0.13 °C | -0.32 °C | –
CC(C)[C@H](NC(=O)[C@H](CCC(=O)O)NC(=O)[C@H](C)NC(=O)OC(C)(C)C)C(=O)N[C@H](C=O)CC(=O)O (Boc-AEVD-aldehyde) | 0.45 °C | -1.27 °C | –
O=C(N1CCCC[C@@H]1Cc1ccccc1)n1cc(-c2ccc(-c3ccccc3)cc2)nn1 | 0 °C | 0.6 °C | –
N[C@@H](CCCCB(O)O)C(=O)O | 0.29 °C | 0.2 °C | –
CN1C[C@@H]2[C@H](C1)[C@H]2CN(Cc1ccc(F)c(Cl)c1)C(=O)c1cn(C)cn1 | 0.05 °C | 1.67 °C | –
CCc1oc2ccccc2c1C(=O)c1cc(Br)c(O)c(Br)c1 | -1.86 °C | -11 °C | –
CS(=O)(=O)c1ccc(Oc2cc(F)cc(C#N)c2)c2c1C(O)C(F)C2 (stereo not given) | -0.57 °C | 0.86 °C | –
COc1cc2c(cc1OC)[C@H]1C[C@@H](O)[C@H](CC(C)C)CN1CC2 | 0.33 °C | 0.34 °C | –
Cc1c(Nc2ccc(S(=O)(=O)N3CCN(C)CC3)cc2F)nc2ccc(-c3cnn(C4CC4)c3)cn2c1=O | -0.17 °C | 0.83 °C | –
NC(=O)C(CCCN=C(N)CCl)NC(=O)c1ccccc1 (stereo not given) | -0.58 °C | 1.58 °C | –
NS(=O)(=O)c1cc(-c2nnn[nH]2)c(NCc2cccs2)cc1Cl | 0.38 °C | – | 2 °C
Cn1cc(C(=O)Nc2ccc([C@@H]3C[C@H]3NCC3CC3)cc2)cn1 | -0.53 °C | 0.16 °C | –
N#Cc1nc2c(nc1C#N)-c1ccccc1C2=NOCc1ccccc1 | 0.78 °C | 5.25 °C | –
O=C(CCl)Nc1ccc(S(=O)(=O)c2ccc(NC(=O)CCl)cc2)cc1 | 0.88 °C | 0.78 °C | –
COc1ccc(-n2c(SCCCN3C(=O)c4cccc5cccc(c45)C3=O)nnc2-c2ccncc2)cc1 | 0.21 °C | 0.39 °C | –
CCS(=O)(=O)N1CCC([C@@H](C)n2c(C)c(C(=O)NCc3c(OC)cc(C)[nH]c3=O)c3ccccc32)CC1 | 0.02 °C | -1.1 °C | –
Nc1ccccc1NC(=O)CCCCCC(=O)Nc1ccccc1 | 0.58 °C | -1.41 °C | –
O=C(CNC(=O)[C@H](COP(=O)(O)O)NC(=O)CCc1c[nH]c2ccccc12)NCCCCc1ccccc1 | 0.74 °C | 2.14 °C | –
COc1cc(-c2cn(C)c(=O)c3cnccc23)cc(OC)c1CN(C)C | 0.18 °C | 6.51 °C | –
CCCC[C@]1(CC)CS(=O)(=O)c2cc(CNC(CC(=O)O)CC(=O)O)c(OC)cc2[C@@H](c2ccccc2)N1 | 0.6 °C | 1.87 °C | –
